PubChem BioAssay (NCI)
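Interpolation was linear, between the two tested concentrations surrounding the appropriate level; five concentrations were tested over 48 hours in 96-well plates. GI50 is the concentration that inhibits growth by half. TGI: total growth inhibition.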

Experiments:
Assay in all cases: growth of human tumour cells (NCI), 48 h
[1] = test system: DLD-1 colon
[2] = test system: DMS 273 small cell lung
[3] = test system: KM20L2 colon
[4] = test system: LXFL 529 NSCLC
[5] = test system: SNB-78 CNS
[6] = test system: DMS 114 small cell lung
[7] = test system: RXF-631 renal
[8] = test system: XF 498 CNS
[9] = test system: M19-MEL melanoma

SMILES | TGI [1] | TGI [2] | TGI [3] | TGI [4] | TGI [5] | TGI [6] | TGI [7] | TGI [8] | TGI [9] | GI50 [6] | GI50 [9]
CCOC(=O)CC[C@@H](NC(=O)c1ccc(N[C@@H]2c3cc4c(cc3C(c3cc(OC)c(O)c(OC)c3)C3C(=O)OC[C@@H]32)OCO4)cc1)C(=O)OCC (stereo partly specified) | 0.406 µM | 0.114 µM | 0.272 µM | > 10 µM | > 10 µM |  |  |  |  |  | 
CC(c1cccc2ccccc12)/[N+]([O-])=C/c1ccccc1 (stereo unspecified) | > 100 µM | > 100 µM | > 100 µM | > 100 µM |  | > 100 µM | > 100 µM | > 100 µM |  |  | 
CC1=NN(C(=O)Cc2ccccc2)C(=O)/C1=C\C=C\c1ccccc1 | > 100 µM | > 100 µM |  |  | > 100 µM |  |  | > 100 µM |  |  | 
COc1ccc2c3ccc4c(c3n(C)c2c1)C(=O)c1ccccc1C4=O | > 100 µM | > 100 µM | > 100 µM | > 100 µM | > 100 µM | > 100 µM |  |  | > 100 µM |  | 
COC(=O)CC1C(=O)OCc2c1cc1n(c2=O)Cc2c-1nc1ccccc1c2OC (stereo unspecified) |  | > 100 µM | > 100 µM | > 100 µM |  | > 100 µM |  | > 100 µM | > 100 µM |  | 
CCOP(=O)(OCC)/C(C#N)=C/c1ccco1 | > 100 µM |  |  | > 100 µM | > 100 µM | > 100 µM | > 100 µM | > 100 µM | > 100 µM |  | 
CCC1(N=[N+]=[N-])C(=O)Nc2cc(C)ccc2C1=O (stereo unspecified) | > 100 µM | > 100 µM | > 100 µM | > 100 µM | > 100 µM | > 100 µM |  |  | > 100 µM |  | 
COc1ccc(C2C(Cl)C(=O)N2NC(=O)Cc2ccccc2)cc1 (stereo unspecified) | > 100 µM | > 100 µM | > 100 µM | > 100 µM | > 100 µM |  |  | > 100 µM | > 100 µM |  | 
CC(C)(C)[C@H]1CO[C@]2(C)[C@@H]3C[C@@H]3C(=O)N12 | > 100 µM | > 100 µM | > 100 µM |  | > 100 µM | > 100 µM | > 100 µM | > 100 µM | > 100 µM |  | 
Cc1cc2c(s1)C(=O)c1sccc1C2=O | 3.36 µM | 2.62 µM | 4.75 µM | 2.5 µM |  | 0.6 µM |  | 2.92 µM |  |  | 
COC[n+]1cc2cc(OC)c(OC)cc2c2ccc3cc(OC)c(OC)cc3c21 | > 100 µM |  | > 100 µM | > 100 µM | > 100 µM | > 100 µM | > 100 µM |  | > 100 µM |  | 
CCCCc1c2c(nc3c1CCC/C3=C\c1ccccc1)C(=O)C(CN(C)C)CC2 (stereo unspecified) | 33.4 µM | 41.1 µM | 35.6 µM | 21 µM | 45.6 µM | 34.8 µM |  | 28.2 µM | 32 µM |  | 
O=C(c1ccncc1)n1nc(-c2ccccc2)c(N=Nc2ccc([N+](=O)[O-])cc2)c1-c1ccccc1 | > 100 µM | > 100 µM |  | 25.7 µM | 28 µM | > 100 µM |  | > 100 µM | > 100 µM |  | 
[N-]=[N+]=NC1C(Br)C(=O)NC(=O)N1[C@H]1C[C@H](O)[C@@H](CO)O1 (stereo partly specified) | > 100 µM | > 100 µM | > 100 µM | > 100 µM | > 100 µM | > 100 µM |  | > 100 µM | > 100 µM | 90.9 µM | 91.5 µM
Cc1cc2oc(=O)[nH]c(=S)c2c(C)c1C |  | > 100 µM | > 100 µM | > 100 µM |  | > 100 µM |  | > 100 µM | > 100 µM |  | 
CCN(CC)Cc1cc(Nc2c3ccccc3nc3c2[nH]c2ccccc23)ccc1O | 5.7 µM | 1.84 µM | 2.41 µM | 3.02 µM | 4.87 µM | 3.14 µM | 4.37 µM | 3.18 µM | 3.04 µM |  | 
